≈ marks a conversion by molar mass, not a printed value. Where two headings read alike, the source gives them in different places.

Experiment [1] has as its system T1, V. cholerae SAD30.
T1 construct: SAD30
As to the kind of experiment: microbe, parasite or virus in culture. The note with it: Vibrio cholerae, SAD30, read-out: MIC VC. Set-up: species or system bacterial strain; broth microdilution MIC, OD600, lowest concentration without visible bacterial growth. How it is done:
(§1) MIC measurement. The minimum inhibitory concentrations (MICs) of compounds were measured using the broth microdilution method.1 One stab using 10 µL tip from bacteria glycerol stock was inoculated into 5 mL of LB supplemented with selection antibiotics (Kanamycin for Keio collections and chloramphenicol for ASKA collections), and the culture was incubated at 37 °C with shaking overnight. […] The plate was incubated at 37 °C for 16 ~ 20 h with shaking at 80 rpm and the OD600 was measured using Cytation 5 plate reader (BioTek). MIC was determined as the lowest concentration for which no bacterial growth was observed. LB was used as the growth media for all the bacteria strains unless otherwise mentioned. For S. aureus and A. baumannii strains, tryptic soy broth (TSB, BD, DF0370-17-3) was used as the growth media instead of LB. For P. aeruginosa and K. pneumoniae strains, nutrient broth (NB, RPI, N15100) was used as growth media. All MIC measurements were performed in at least biological duplicates.

Experiment [2] concerns T2, S. aureus MSSA476.
T2 construct: MSSA476
The experiment is described as follows: microbe, parasite or virus in culture. Set-up: species or system bacterial strain; broth microdilution MIC, OD600, lowest concentration without visible bacterial growth. The note with it: Staphylococcus aureus, MSSA476, read-out: MIC SA. The procedure:
as §1

The subject of experiment [3] is T3, S. flexneri M90T.
T3 construct: M90T
As to the kind of experiment: microbe, parasite or virus in culture. Set-up: species or system bacterial strain; broth microdilution MIC, OD600, lowest concentration without visible bacterial growth. The note with it: Shigella flexneri, read-out: MIC SF. The procedure:
as §1

Experiment [4] deals with T4, E. coli JPN15.
T4 construct: JPN15 (EPEC)
The experiment is described as follows: microbe, parasite or virus in culture. Set-up: species or system bacterial strain; broth microdilution MIC, OD600, lowest concentration without visible bacterial growth. The note with it: Escherichia coli, JPN15, read-out: MIC EC. The procedure: as §1

In experiment [5] the test system is S. flexneri M90T. As to the kind of experiment: microbe, parasite or virus in culture. The note with it: Shigella flexneri, read-out: MIC SF. The procedure:
as §1

The target in experiment [6] is T5, Sf_MiaA (Shigella flexneri, UniProt P59197).
T5 construct: gene miaA; recombinant, purified from E. coli BL21; two cysteines in total; also native protein in live S. flexneri M90T (ABPP row)
T5 sequence (P59197 1-316): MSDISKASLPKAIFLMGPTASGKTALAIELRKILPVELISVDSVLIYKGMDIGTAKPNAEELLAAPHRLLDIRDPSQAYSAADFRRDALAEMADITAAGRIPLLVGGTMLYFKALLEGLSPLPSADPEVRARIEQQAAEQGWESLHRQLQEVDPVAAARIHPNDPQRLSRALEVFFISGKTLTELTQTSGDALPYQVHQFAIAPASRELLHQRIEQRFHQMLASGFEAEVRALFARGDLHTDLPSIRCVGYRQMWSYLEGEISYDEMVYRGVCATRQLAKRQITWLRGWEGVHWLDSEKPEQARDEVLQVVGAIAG
The experiment is described as follows: i6A-37 tRNA formation followed by LC-MS after preincubation. The note with it: covalent; Cys273; tRNA-Trp 34-mer substrate. In kind it is biochemical. The procedure:
i6A-37 tRNA formation followed by LC-MS after preincubation on Sf_MiaA | preincubation of 10-F05 with MiaA decreased the initial velocity of modified tRNA forming rate

Experiment [7] addresses T6, Sf_PdxY (Shigella flexneri, UniProt Q83KY1).
T6 construct: gene pdxY; recombinant, purified from E. coli BL21; also native protein in live S. flexneri M90T (ABPP row)
T6 sequence (Q83KY1 1-287): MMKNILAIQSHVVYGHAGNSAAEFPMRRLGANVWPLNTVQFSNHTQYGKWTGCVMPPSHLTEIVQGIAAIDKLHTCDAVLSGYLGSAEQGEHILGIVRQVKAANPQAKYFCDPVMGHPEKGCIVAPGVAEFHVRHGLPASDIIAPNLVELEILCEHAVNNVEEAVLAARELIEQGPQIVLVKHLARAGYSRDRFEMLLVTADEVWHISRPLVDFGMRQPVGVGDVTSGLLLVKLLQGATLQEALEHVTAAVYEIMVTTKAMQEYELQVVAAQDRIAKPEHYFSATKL
The experiment is described as follows: in-gel fluorescence competition with 5-TMRIA. The note with it: covalent; 1 h preincubation. In kind it is binding.

In experiment [8] the target is T7, Sf_FabH (Shigella flexneri, UniProt Q83RS8).
T7 construct: gene fabH; recombinant, purified from E. coli BL21; also native protein in live S. flexneri M90T (ABPP rows)
T7 sequence (Q83RS8 1-317): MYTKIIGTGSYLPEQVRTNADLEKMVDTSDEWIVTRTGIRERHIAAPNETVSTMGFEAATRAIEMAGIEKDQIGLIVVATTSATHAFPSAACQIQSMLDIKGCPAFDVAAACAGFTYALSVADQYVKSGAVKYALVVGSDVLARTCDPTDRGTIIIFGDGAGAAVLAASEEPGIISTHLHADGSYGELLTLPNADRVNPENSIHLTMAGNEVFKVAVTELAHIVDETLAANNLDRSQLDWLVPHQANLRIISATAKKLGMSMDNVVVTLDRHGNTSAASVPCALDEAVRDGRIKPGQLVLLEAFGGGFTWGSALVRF
As to the kind of experiment: in-gel fluorescence competition with 5-TMRIA. The note with it: covalent; 1 h preincubation. In kind it is binding.

Experiment [9] relates to T8, E. coli (KPC+) BAA-2340.
T8 construct: BAA-2340 (KPC+)
The experiment is described as follows: microbe, parasite or virus in culture. Set-up: species or system bacterial strain; broth microdilution MIC, OD600, lowest concentration without visible bacterial growth. The note with it: Escherichia coli, BAA2340, read-out: 10-F05 MIC µM. How it is done:
as §1

For experiment [10], the system named is T9, P. aeruginosa BAA-2110.
T9 construct: BAA-2110
As to the kind of experiment: microbe, parasite or virus in culture. The note with it: Pseudomonas aeruginosa, BAA2110, read-out: 10-F05 MIC µM. Set-up: species or system bacterial strain; broth microdilution MIC, OD600, lowest concentration without visible bacterial growth. How it is done:
as §1

The test system of experiment [11] is T10, A. baumannii BAA-1790.
T10 construct: BAA-1790
The experiment is described as follows: microbe, parasite or virus in culture. The arrangement: species or system bacterial strain; broth microdilution MIC, OD600, lowest concentration without visible bacterial growth. The note with it: Acinetobacter baumannii, BAA1790, read-out: 10-F05 MIC µM. The procedure:
as §1

Experiment [12] concerns T11, K. pneumoniae 700603.
T11 construct: 700603
As to the kind of experiment: microbe, parasite or virus in culture. Set-up: species or system bacterial strain; broth microdilution MIC, OD600, lowest concentration without visible bacterial growth. The note with it: Klebsiella pneumoniae, 700603, read-out: 10-F05 MIC µM. The procedure:
as §1

In experiment [13] the test system is T12, K. pneumoniae 13883.
T12 construct: 13883
The experiment is described as follows: microbe, parasite or virus in culture. The arrangement: species or system bacterial strain; broth microdilution MIC, OD600, lowest concentration without visible bacterial growth. The note with it: Klebsiella pneumoniae, 13883, read-out: 10-F05 MIC µM. The procedure:
as §1

Experiment [14] relates to T13, E. cloacae 13047.
T13 construct: 13047
The experiment is described as follows: microbe, parasite or virus in culture. The arrangement: species or system bacterial strain; broth microdilution MIC, OD600, lowest concentration without visible bacterial growth. The note with it: Enterobacter cloacae, 13047, read-out: 10-F05 MIC µM. The procedure: as §1

The target in experiment [15] is T14, Sa_FabH (Staphylococcus aureus, UniProt Q6GAU3).
T14 construct: gene fabH; purified protein
T14 sequence (Q6GAU3 1-313): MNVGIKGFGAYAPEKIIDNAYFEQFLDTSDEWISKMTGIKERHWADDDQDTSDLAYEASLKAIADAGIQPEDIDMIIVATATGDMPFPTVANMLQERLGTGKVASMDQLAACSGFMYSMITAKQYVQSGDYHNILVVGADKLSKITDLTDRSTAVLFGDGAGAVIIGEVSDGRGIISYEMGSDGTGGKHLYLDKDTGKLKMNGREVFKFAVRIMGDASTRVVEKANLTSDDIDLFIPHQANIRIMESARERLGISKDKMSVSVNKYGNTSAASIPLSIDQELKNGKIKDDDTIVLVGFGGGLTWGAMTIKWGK
As to the kind of experiment: in-gel fluorescence competition with 5-TMRIA. In kind it is binding. The note with it: covalent.

Experiment [16] has as its target T5, Sf_MiaA. As to the kind of experiment: in-gel fluorescence competition with 5-TMRIA. In kind it is binding. The note with it: covalent; Cys273; 1 h preincubation.

For `O=C(CCl)c1cn(-c2cccc(C(F)(F)F)c2)nn1` [10-C09], the MIC turned out to be 100 µM (≈ 29 µg/mL) in [1], 25 µM (≈ 7.24 µg/mL) in [2], 25 µM (≈ 7.24 µg/mL) in experiment [3] and 100 µM (≈ 29 µg/mL) in experiment [4].
Consider `CC(=O)c1cn(-c2ccc(F)cc2)nn1` [10-F05-N], for which the MIC in experiment [1], in [2], in experiment [4] and in [5] was over 100 µM each time.
As for `O=C(CCl)c1cn(-c2ccc(F)cc2)nn1` [10-F05], in experiment [6], the “fold decrease in initial velocity” value came to 1.7 fold. Moreover, the “in-gel fluorescence competition with 5-TMRIA” value is “preincubation of 10-F05 decreased the 5-TMRIA labeling in a dose-dependent manner (Figure 5A)” in experiment [7]; “rapid covalent bond formation between 10-F05 and Sf_FabH (Figure 5B)” in experiment [8]; 10-F05 was able to bind with S. aureus FabH (Sa_FabH, Figure 5C) in [15]; “indicating 10-F05 specifically reacts with MiaA Cys273” in [16]. Also, the MIC in experiment [1] was 10 µM (≈ 2.4 µg/mL); in experiment [2], 10 µM (≈ 2.4 µg/mL); in experiment [3], 2.5 µM (≈ 0.599 µg/mL); in experiment [9] it was 50 µM (≈ 12 µg/mL); in experiment [10], over 100 µM; in experiment [11] it was over 100 µM. In addition, the MIC is over 100 µM in [12], 50 µM (≈ 12 µg/mL) in experiment [13], 25 µM (≈ 5.99 µg/mL) in experiment [4] and 50 µM (≈ 12 µg/mL) in experiment [14].
Consider `CC(=O)c1cnccc1F` [10-I09-N], for which the MIC in experiment [1], in experiment [2], in experiment [4] and in [5] was over 100 µM throughout.
In the case of `CC(=O)c1ccccn1` [10-J03-N], the MIC in experiment [1], in experiment [2], in experiment [4] and in experiment [5] was over 100 µM in each case.
As for `CC(=O)c1cn(-c2cccc(C)c2)nn1` [10-L07-N], the MIC in [1], in experiment [2], in experiment [4] and in experiment [5] was over 100 µM in each case.
On to `Cc1cccc(-n2cc(C(=O)CCl)nn2)c1` [10-L07], for which the MIC was found to be 25 µM (≈ 5.89 µg/mL) in [1], 10 µM (≈ 2.36 µg/mL) in experiment [2], 5 µM (≈ 1.18 µg/mL) in experiment [3] and 50 µM (≈ 11.8 µg/mL) in [4].
The matching figures for `Cn1cc(C(=O)CCl)nn1` [10-M19]: 50 µM (≈ 7.98 µg/mL), 100 µM (≈ 16 µg/mL), 50 µM (≈ 7.98 µg/mL) and 50 µM (≈ 7.98 µg/mL).

(Values after publication doi:10.1101/2024.01.22.576576v1, “Phenotypic screening of covalent compound libraries identifies chloromethyl ketone antibiotics and MiaA as a new target” (biorxiv, 2024).)
